Test results published in patent US20060069132A1, “Azolecarboxamide herbicides” (priority 2004, published 2006).

Legend:
pigweed = assay: Test B pre-/postemergence herbicide test; assay type: in vivo, Amaranthus retroflexus; conditions: for Pigweed plant response rating: postemergence
Summary of the method: (§1)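 Response was scored visually 13 to 15 days after treatment against untreated greenhouse controls, 0 meaning no effect and 100 complete control. Formulations (solvent mixture plus surfactant) went onto soil after planting, onto foliage of 1- to 4-leaf plants, and onto 2-leaf plants in a flooded paddy set including rice and barnyardgrass.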

corn = assay: Test B pre-/postemergence herbicide test; assay type: in vivo, Zea mays; conditions: for Corn plant response rating: postemergence
Summary of the method: as §1

wild oat = assay: Test B postemergence herbicide test; assay type: in vivo, Avena fatua; conditions: postemergence
Summary of the method: (§2)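 Each value is a visual 0–100 response rating taken against controls 13 to 15 days after treatment in the greenhouse. Plants received formulated chemical postemergence at the 1- to 4-leaf stage or, in flooded paddy, at the 2-leaf stage.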

rice [1] = assay: Test B pre-/postemergence herbicide test; assay type: in vivo, Oryza sativa; conditions: 0 = no effect, 100 = complete control, preemergence
Summary of the method: as §1

giant foxtail = assay: Test B pre-/postemergence herbicide test; assay type: in vivo, Setaria faberi; conditions: for Foxtail, Giant plant response rating: postemergence
Summary of the method: as §1

[2] = tested on: smallflower umbrella sedge; assay: Test C flooded paddy test; assay type: in vivo, Cyperus difformis
wheat = assay: Test B postemergence herbicide test; assay type: in vivo, Triticum aestivum; parameters: key to Wheat plant response rating: 0 = no effect, 100 = complete control; conditions: postemergence
Summary of the method: as §2

large crabgrass = assay: Test B pre-/postemergence herbicide test; assay type: in vivo, Digitaria sanguinalis; conditions: for Crabgrass, Large plant response rating: postemergence
Summary of the method: as §1

morningglory = assay: Test B pre-/postemergence herbicide test; assay type: in vivo, Ipomoea coccinea; conditions: for Morningglory plant response rating: postemergence
Summary of the method: (§3)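 Seeds were planted and treated preemergence with compounds formulated in a non-phytotoxic solvent mixture containing surfactant, while plants at the 1- to 4-leaf stage (2 to 18 cm) received postemergence sprays. Flooded paddy plants were grown to the 2-leaf stage. After 13 to 15 days in a greenhouse, injury was visually rated 0–100 against untreated controls.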

rice [3] = assay: Test B flooded paddy test; assay type: in vivo, Oryza sativa; conditions: 1000 g ai/ha, scale 0 to 100 (0 no effect, 100 complete control)
Summary of the method: (§4)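 Postemergence plants were sprayed with formulated test chemicals at 2 to 18 cm height (1- to 4-leaf stage); paddy species were grown to the 2-leaf stage. After 13 to 15 days in a greenhouse, injury was rated visually against untreated controls on a 0–100 scale (0 = no effect, 100 = complete control).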

rice [4] = assay: Test C flooded paddy test; assay type: in vivo, Oryza sativa
Summary of the method: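 Plants were grown to the 1- to 4-leaf stage (2–18 cm) and then treated postemergence, or grown to the 2-leaf stage for the flooded paddy test. They were held in a greenhouse for 12 to 14 days and then scored by eye against controls, where 0 is no effect and 100 is complete control.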

cocklebur = assay: Test B pre-/postemergence herbicide test; assay type: in vivo, Xanthium strumarium; conditions: for Cocklebur plant response rating: postemergence, scale 0 (no effect) to 100 (complete control)
Summary of the method: as §3

barnyardgrass [5] = assay: Test C flooded paddy test; assay type: in vivo, Echinochloa crus-galli
Summary of the method: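 Ratings (0 = no effect, 100 = complete control) come from visual comparison with untreated plants after 12 to 14 days in the greenhouse. Treatment was postemergence at the 1- to 4-leaf stage (2–18 cm), or at the 2-leaf stage for the flooded paddy barnyardgrass.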

ducksalad [6] = assay: Test C flooded paddy test; assay type: in vivo, Heteranthera limosa
lambsquarters = assay: Test B pre-/postemergence herbicide test; assay type: in vivo, Chenopodium album; conditions: for Lambsquarters plant response rating: postemergence
Summary of the method: as §1

blackgrass = assay: Test B postemergence herbicide test; assay type: in vivo, Alopecurus myosuroides; conditions: postemergence, visual rating, scale 0 (no effect) to 100 (complete control)
Summary of the method: as §4

velvetleaf = assay: Test B pre-/postemergence herbicide test; assay type: in vivo, Abutilon theophrasti; conditions: for Velvetleaf plant response rating: postemergence
Summary of the method: as §1

Surinam grass = assay: Test B pre-/postemergence herbicide test; assay type: in vivo, Urochloa decumbens; conditions: for Surinam Grass plant response rating: postemergence
Summary of the method: as §1

[7] = tested on: small flower umbrella sedge; assay: Test B flooded paddy test; assay type: in vivo, Cyperus difformis; conditions: 1000 g ai/ha, scale 0 to 100 (0 no effect, 100 complete control)
Summary of the method: as §4

barnyardgrass [8] = assay: Test B pre-/postemergence herbicide test; assay type: in vivo, Echinochloa crus-galli; conditions: for Barnyardgrass plant response rating: postemergence, scale 0 (no effect) to 100 (complete control)
Summary of the method: as §3

barnyardgrass [9] = assay: Test B flooded paddy test; assay type: in vivo, Echinochloa crus-galli; conditions: 1000 g ai/ha, scale 0 to 100 (0 no effect, 100 complete control)
Summary of the method: as §4

ducksalad [10] = assay: Test B flooded paddy test; assay type: in vivo, Heteranthera limosa; conditions: 1000 g ai/ha, scale 0 to 100 (0 no effect, 100 complete control)
Summary of the method: as §4

[11] = 500 g ai/ha, visual rating, 0 = no effect, 100 = complete control, preemergence
[12] = 125 g ai/ha, visual rating, scale 0 (no effect) to 100 (complete control)
[13] = 500 g ai/ha, scale 0 to 100, 0 is no effect, 100 is complete control
[14] = 125 g ai/ha, 0 = no effect, 100 = complete control, preemergence
[15] = 125 g ai/ha, scale 0 to 100 (0 no effect, 100 complete control)
[16] = 250 g ai/ha, scale of 0 to 100, 0 is no effect, 100 is complete control
[17] = 500 g ai/ha, visual rating after 12 to 14 days, scale 0 to 100 (0 no effect, 100 complete control)

## CCn1nc(C(C)(C)C)cc1C(=O)Nc1cncc(C(=O)N2CC=CC2)c1 [Compound 260]
pigweed; [11]
  Plant response rating, Pigweed: 100
pigweed; [12]
  Pigweed plant response rating: 20
pigweed; [13]
  Pigweed plant response rating: 70
corn; [14]
  Corn plant response rating (0 to 100 scale): 0
corn; [11]
  Plant response rating, Corn: 0
corn; [12]
  Corn plant response rating: 0
corn; [13]
  Corn plant response rating: 0
Wild oat; [12]
  Oat, Wild plant response rating: 20
Wild oat; [13]
  Oat, Wild plant response rating: 30
Rice [1]; 125 g ai/ha
  Rice plant response rating (0 to 100 scale): 0
Rice [1]; 500 g ai/ha, visual rating
  Plant response rating, Rice: 30
Giant foxtail; [14]
  Foxtail, Giant plant response rating (0 to 100 scale): 0
Giant foxtail; [11]
  Plant response rating, Foxtail, Giant: 30
Giant foxtail; [12]
  Foxtail, Giant plant response rating: 0
Giant foxtail; [13]
  Foxtail, Giant plant response rating: 0
[2]; 62 g ai/ha, scale 0 to 100
  Sedge, Umbrella plant response rating: 0
[2]; [15]
  Sedge, Umbrella plant response rating: 40
[2]; [16]
  Sedge, Umbrella plant response rating: 65
[2]; [17]
  Plant response rating, Sedge, Umbrella: 65
wheat; [12]
  Wheat plant response rating: 20
wheat; [13]
  Wheat plant response rating: 40
Large crabgrass; [14]
  Crabgrass, Large plant response rating (0 to 100 scale): 0
Large crabgrass; [12]
  Crabgrass, Large plant response rating: 0
Large crabgrass; [13]
  Crabgrass, Large plant response rating: 10
morningglory; [14]
  Morningglory plant response rating (0 to 100 scale): 0
morningglory; [11]
  Plant response rating, Morningglory: 0
morningglory; [12]
  Morningglory plant response rating: 0
morningglory; [13]
  Morningglory plant response rating: 10
Rice [3]
  Rice plant response rating: 70
Rice [4]; 62 g ai/ha, scale 0 to 100
  Rice plant response rating: 0
Rice [4]; [15]
  Rice plant response rating: 0
Rice [4]; [16]
  Rice plant response rating: 0
Rice [4]; [17]
  Plant response rating, Rice: 15
cocklebur; [14]
  Cocklebur plant response rating (0 to 100 scale): 0
cocklebur; [11]
  Plant response rating, Cocklebur: 0
cocklebur; 125 g ai/ha, visual rating
  Cocklebur plant response rating: 10
cocklebur; 500 g ai/ha, visual rating
  Cocklebur plant response rating: 20
Barnyardgrass [5]; 62 g ai/ha, scale 0 to 100 (0 no effect, 100 complete control)
  Barnyardgrass plant response rating: 0
Barnyardgrass [5]; [15]
  Barnyardgrass plant response rating: 0
Barnyardgrass [5]; [16]
  Barnyardgrass plant response rating: 20
Barnyardgrass [5]; [17]
  Plant response rating, Barnyardgrass: 35
Ducksalad [6]; 62 g ai/ha, scale 0 to 100
  Ducksalad plant response rating: 0
Ducksalad [6]; [15]
  Ducksalad plant response rating: 70
Ducksalad [6]; [16]
  Ducksalad plant response rating: 75
Ducksalad [6]; [17]
  Plant response rating, Ducksalad: 85
lambsquarters; [11]
  Plant response rating, Lambsquarters: 100
lambsquarters; [12]
  Lambsquarters plant response rating: 10
lambsquarters; [13]
  Lambsquarters plant response rating: 30
blackgrass; 125 g ai/ha
  Blackgrass plant response rating: 10
blackgrass; 500 g ai/ha
  Blackgrass plant response rating: 10
velvetleaf; [14]
  Velvetleaf plant response rating (0 to 100 scale): 0
velvetleaf; [11]
  Plant response rating, Velvetleaf: 10
velvetleaf; [12]
  Velvetleaf plant response rating: 0
velvetleaf; [13]
  Velvetleaf plant response rating: 20
Surinam grass; [14]
  Surinam Grass plant response rating (0 to 100 scale): 0
Surinam grass; [11]
  Plant response rating, Surinam Grass: 10
Surinam grass; [12]
  Surinam Grass plant response rating: 0
Surinam grass; [13]
  Surinam Grass plant response rating: 20
[7]
  Sedge, Umbrella plant response rating: 70
Barnyardgrass [8]; [14]
  Barnyardgrass plant response rating (0 to 100 scale): 0
Barnyardgrass [8]; [11]
  Plant response rating, Barnyardgrass: 70
Barnyardgrass [8]; 125 g ai/ha, visual rating
  Barnyardgrass plant response rating: 0
Barnyardgrass [8]; 500 g ai/ha, visual rating
  Barnyardgrass plant response rating: 0
Barnyardgrass [9]
  Barnyardgrass plant response rating: 60
Ducksalad [10]
  Ducksalad plant response rating: 90
